In brackets after ≈: the same amount, converted by molar mass. Entries after “also recorded” stand apart in the source; their conditions may differ. Where two headings read alike, the source gives them in different places.

Results on 15 molecules are retold here after paper PMC9225741, “Inhibition of Streptococcus mutans adhesion and biofilm formation with small-molecule inhibitors of sortase A from Juniperus chinensis” (Journal of Oral Microbiology, 2022).

Assay [1] deals with S. mutans OMZ65. Nature of the assay: Antibacterial activity assay (MIC, broth dilution). As to conditions: S. mutans OMZ65, BHI broth, 16–20 h, 37°C, read-out: MIC (minimum inhibitory concentration). In kind it is cell-based, Streptococcus mutans. How it is done: Antibacterial activities of isolated compounds were determined according to a previously described method based on Clinical and Laboratory Standards Institute guidelines. Briefly, 5 mL of S. mutans OMZ65 was inoculated into brain heart infusion (BHI) broth, incubated aerobically for 16 h at 37°C, and the bacterial density was adjusted based on turbidity to match the 0.5 MacFarland standard at 625 nm. In each well of a 96-well plate, 20 μL of twofold diluted test compounds in 10% DMSO was added to 180 μL of cell culture in BHI broth and incubated for 16–20 h at 37°C. The final concentration of cells was approximately 5 × 10^5 colony-forming units (CFU)/mL. The minimal inhibitory concentration (MIC) values were identified as the lowest concentration that inhibited cell growth. Ampicillin was used as an antibacterial positive control.
(In broth dilution the organism is exposed to a series of concentrations in liquid medium.)

Assay [2] has as its system SrtA (from strain ATCC25175). On the set-up: method as in PMID 24154653. The note with it: cited from earlier work.
Assay [3] addresses T1, S. mutans SrtA (Streptococcus mutans, UniProt Q8CM62).
T1 construct: made in house; host or cells: Escherichia coli
In words: biochemical. In kind it is biochemical, Streptococcus mutans OMZ65. How it is done:
Recombinant SrtA protein was prepared following previously described procedures. S. mutans OMZ65 isolated from the human oral cavity was provided by Seoul National University School of Dentistry. The srtA genes derived from S. mutans OMZ65 were expressed in Escherichia coli and SrtA was purified through metal chelate affinity chromatography on Ni-nitriloacetic acid (NTA) resin. Each reaction was performed in a total volume of 100 μL, containing 50 mM Tris-HCl, 150 mM NaCl, and 5 mM CaCl2 at pH 7.5, along with 17 μg of purified SrtA and 250 ng of synthetic substrate (Dabcyl-LPETG-Edans). The sample compounds were added to each reaction mixture with the solvent DMSO (final concentration, 1%). After 1 h of incubation at 37°C, the reactions were quantified based on fluorometric intensity (350 nm excitation and 495 nm emission wavelengths) using a microplate reader (FLx800, BioTek Instruments, Winooski, VT). Triphasiol was used as a positive control for the SrtA inhibitor.
Recombinant SrtA protein derived from S. mutans OMZ65 was prepared from an extract of E. coli transformant using Ni-NTA affinity chromatography. SrtA enzyme activities were measured through a fluorophotometric method using synthetic peptide substrate containing the LPETG motif. […] As SrtA inhibitors may act as anti-infective agents and disrupt bacterial infectiousness without impacting bacterial viability, the MICs of the isolated compounds were evaluated to identify possible effects on S. mutans aggregation, adhesion, and biofilm formation on solid surfaces.

Assay [4] has as its system S. mutans NG8. Nature of the assay: Saliva-induced aggregation assay. The assay is classed as cell-based, Streptococcus mutans. How it is done: The effect of SrtA inhibitor on bacterial cell aggregation induced by human saliva was conducted according to a previously documented procedure. S. mutans NG8 (wild-type), srtA-deletion mutant (ΔsrtA), and srtA-complemented mutant (ΔsrtA+srtA) were used in this study. These strains were kindly provided by Prof. S. F. Lee (Dalhousie University, Nova Scotia, Canada) and inoculated into Todd Hewitt broth and incubated for 16 h at 37°C, washed twice with KPBS (137 mM NaCl, 2.7 mM KCl, 6.5 mM Na2HPO4, 1.5 mM KH2PO4, pH 7.2), and resuspended in KPBS to an approximate optical density of 1.0 at 700 nm. Assay mixtures consisted of 400 μL of cells, 100 μL of fresh clarified saliva, and diluted test compounds. Saliva was provided from one volunteer (a unmarried person) who had no dental health issues. The collected non-stimulated saliva was clarified by centrifugation (7,000 × g, 10 min, 4°C) and sterilized by membrane filtration (0.2 μm pore size). The mixtures were gently mixed through inversion and incubated aerobically at 37°C for 2 h. Turbidity at 700 nm was recorded every 20 min.
Using a combined bioactivity test, we subsequently examined the inhibitory effects of compound 1 on saliva-induced aggregation of S. mutans (Figure 3). […] Aggregation levels were measured based on the decrease of turbidity at 700 nm. […]

In assay [5] the test system is S. mutans NG8. In words: Adherence assay on saliva-coated hydroxyapatite beads. As to conditions: 90 min. The assay is classed as cell-based, Streptococcus mutans.
Experimental: The effect of SrtA inhibition on bacterial adherence was evaluated using saliva-coated hydroxyapatite beads (s-HAs) [11, 25]. A total of 30 μg of s-HAs (diameter, 80 µm; Bio-Rad, Hercules, CA) were coated with fresh saliva prepared as mentioned above for 1 h at room temperature and rinsed twice with 0.01 M potassium phosphate buffer (KPB; pH 7.0). S. mutans NG8 (wild type), srtA-deletion mutant (ΔsrtA), and srtA-complemented mutant (ΔsrtA + srtA) [11] were inoculated into 5 mL of BHI broth, incubated aerobically for 16 h at 37°C, and diluted to about 10^8 CFU/mL. […] After three rounds of washing with KPB, attachment between s-HAs and S. mutans cells was disrupted through sonication (50 W, 30s) in KPB. Dispersed cells were spread on Mitis-Salivarius agar (Difco, Detroit, MI) plates containing 3.2 mg/mL bacitracin. The number of colonies formed was determined after incubation for 48 h at 37°C.
In the present study, the role of SrtA inhibitors in modulating cell-surface-related properties of S. mutans was investigated in terms of adherence.
Attachment of S. mutans NG8, srtA-deletion mutant (ΔsrtA), and srtA-complemented mutant (ΔsrtA+srtA) was induced for 90 min at 37°C under aerobic condition, followed by dispersal via sonication (50 W, 30s) after three washes, and then colony-forming unit counting on Mitis-Salivarius agar (3.2 mg/mL bacitracin) after incubation for 48 h at 37°C. […]
Assay [6] relates to S. mutans. Nature of the assay: Biofilm formation assay (polystyrene plate and resin teeth, safranin staining). The note with it: 24 h. In kind it is cell-based, Streptococcus mutans. How it is done: The effect of SrtA inhibition on bacterial biofilm formation was investigated using the polystyrene plate and resin teeth model according to a previously described method. Wild-type S. mutans and srtA mutants were inoculated aerobically into 5 mL of BHI broth at 37°C. Cultures in BHI broth containing 0.1% sucrose (final concentration 5 × 10^5 CFU/mL) were incubated with or without test compounds on 96-well polystyrene plates or with resin teeth (Endura, Shofu Inc., Kyoto, Japan) at 37°C for 24 h under aerobic condition. Biofilms formed on the plate and resin teeth were washed twice with distilled water and then stained with 0.1% safranin for 30 s. After three further washes, the safranin-bound biofilms on plates were dissolved with 30% acetic acid (v/v aqueous solution) and the intensity of absorbance at 530 nm wavelength, indicating safranin, was measured. Biofilms on resin teeth was also washed three times and photographed.
Bacterial adherence and aggregation are initial steps in the biofilm formation process. Through interruption of SrtA enzyme activity, biofilm formation by S. mutans could also be disrupted. To investigate the effect of compound 1 on biofilm formation of S. mutans, the biofilm biomasses of NG8 and srtA mutants formed over 24 h on 96-well plates and resin teeth were assessed through staining with 0.1% safranin.
Figure 5. Inhibition of Streptococcus mutans biofilm formation by compound 1. Biofilm formation assays were performed using a polystyrene 96-well plate (A) and artificial resin teeth (B) at 37°C for 24 h under aerobic condition. […] 0.1% NaF was used as a positive control. Data are presented as the mean ± SD of three independent experiments (* p < 0.05, ** p < 0.01, and *** p < 0.001 based on Student’s t-test).

In assay [7] the test system is S. aureus ATCC6537p-derived SrtA. Also on record: method as in PMID 16010573. As to conditions: cited from earlier work.
Assay [8] deals with SrtA S. mutans OMZ65. On the set-up: method as in PMID 25746812. The note with it: read-out: IC50, SrtA inhibitors against S. mutans OMZ65; cited from earlier work.
In assay [9] the test system is SrtA derived from S. mutans UA159. The note with it: cited from earlier work.
For assay [10], the system named is SrtA. The note with it: read-out: IC50, SrtA activity; cited from earlier work.
The mark [11] stands for this setting: SrtA IC50, recombinant SrtA from S. mutans OMZ65, 1 h, 37°C.

T1 sequence (Q8CM62 entry or part of it): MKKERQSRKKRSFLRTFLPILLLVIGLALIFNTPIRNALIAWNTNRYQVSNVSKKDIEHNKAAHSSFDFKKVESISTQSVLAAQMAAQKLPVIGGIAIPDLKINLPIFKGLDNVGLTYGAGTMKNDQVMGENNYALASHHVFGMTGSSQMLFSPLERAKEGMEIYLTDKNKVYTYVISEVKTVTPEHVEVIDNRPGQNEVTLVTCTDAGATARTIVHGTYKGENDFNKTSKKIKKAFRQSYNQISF

On to `CC1(C)S[C@@H]2[C@H](NC(=O)[C@H](N)c3ccccc3)C(=O)N2[C@H]1C(=O)O` [Ampicillin, reference compound], for which the MIC in assay [1] (Streptococcus mutans) came out at 0.4 µM (≈ 0.14 µg/mL).
In general, IC50 refers to the midpoint of a concentration-inhibition curve. Take `C[C@@H]1O[C@@H](O[C@H]2C(=O)c3c(O)cc(O)cc3O[C@@H]2c2ccc(O)c(O)c2)[C@H](O)[C@H](O)[C@H]1O` [Astillbin]: in assay [2], the “IC50, SrtA (from strain ATCC25175)” value is 7.5 µg/mL (≈ 16.7 µM). The IC50 in [2] (value in brackets) was 16.7 µM.
Turning to `COc1cc(C[C@H]2COC(=O)[C@@H]2Cc2cc(O)c(O)c(OC)c2)cc(O)c1O` [Compound 1, 3’,3”-dihydroxy-(−)-matairesinol], the IC50 in assay [3] (setting [11]) was 16.1 µM. Besides, the MIC in [1] and in assay [1] (Streptococcus mutans) was over 300 µM each time. In addition, the saliva-induced cell aggregation entry in assay [4] (4× the IC50, without sucrose) is given as “significantly repressed”. Further, in [4] (tested at 0×, 1×, 2× and 4× the SrtA IC50 (16.1, 32.2, 64.4 μM), 2 h, 37°C), the “saliva-induced aggregation of NG8 cells (turbidity at 700 nm)” value is listed as “markedly reduced the aggregation of NG8 cells in a dose-dependent manner; also recorded: markedly reduced the aggregation capacity of the bacterial cells in a dose-dependent manner”. The “adherence of S. mutans to s-HAs vs control (NG8)” value in assay [5] (1× IC50 (16.1 μM)) is “not significantly different”. The “decrease of bacterial adhesion to s-HAs compared to the control group” value in [5] (4× the IC50 (64.4 μM)) is “about 60%”. For the same molecule, the “biofilm formation on 96-well polystyrene plates” value in assay [6] (4× the IC50 (64.4 μM), 0.1% sucrose) is “significantly reduced”. In assay [6] (0.1% sucrose, safranin staining), the “concentrations disrupting biofilm formation on the surface of resin teeth” value is “higher than 32.2 μM”.
On to `COc1cc(C[C@H]2COC(=O)[C@@H]2Cc2ccc(O)c(OC)c2)ccc1O` [Compound 2, (−)-matairesinol], for which, in [3] (setting [11]), the IC50 is over 300 µM. Besides, the MIC in assay [1] (Streptococcus mutans) was over 300 µM.
For the molecule `O=c1c(O)c(-c2ccc(O)c(O)c2)oc2cc(O)cc(O)c12` [Compound 3, quercetin], the “SrtA inhibitory activity (in words)” value in [3] (S. mutans SrtA) was “weak inhibitory activities”. Also, in [1] (Streptococcus mutans), the MIC is over 300 µM.
As to `COc1cc(O)cc(O)c1C(C)=O` [Compound 4, 4,6-dihydroxy-2-methoxyacetophenone], in [3] (S. mutans SrtA), the “SrtA inhibitory activity (in words)” value was “weak inhibitory activities”. In addition, the IC50 in assay [3] (setting [11]) was 151 µM; in assay [3] (pIC50, pIC50 = −log10(IC50), S. mutans SrtA), 155 µM. In addition, the MIC in [1] (Streptococcus mutans) is over 300 µM.
On to `CC(C)c1cc(=O)c(O)ccc1O` [Compound 5, 5-hydroxyhinokitiol], for which the IC50 in [3] (setting [11]) came out at 51.7 µM. For the same molecule, the MIC in assay [1] (Streptococcus mutans) is over 300 µM.
The corresponding values for `C/C(=C\Cc1ccc(=O)c(O)cc1C(C)C)CO` [Compound 6, juniperone A] are 62.5 µM and 257 µM (≈ 63.8 µg/mL).
As to `[F-].[Na+]` [NaF, reference compound], in assay [6] (0.1%), the “effect on S. mutans biofilm formation (positive control)” value is given as “potent inhibitory effects”.
The pIC50 is −log10 of the IC50, conventionally taken in molar units. Consider `CC(C)C(=O)Cc1c(OCC(O)C(C)(C)O)ccc2ccc(=O)oc12` (stereo not drawn) [Triphasiol, reference compound], for which the pIC50 in assay [3] (pIC50 = −log10(IC50), S. mutans SrtA) is reported as 4.60. In addition, the IC50 in assay [3] (recombinant SrtA from S. mutans OMZ65, 1 h, 37°C, read-out: SrtA IC50) is 25.3 µM; in assay [7], 34.5 µM.
Turning to `O=C(O)/C=C/c1ccc(O)c(O)c1` [caffeic acid], in assay [8], the concentration for half-maximal inhibition (IC50) was 20.2 µM.
Regarding `COc1cc(/C=C/C(=O)CC(=O)/C=C/c2ccc(O)c(OC)c2)ccc1O` [curcumin], the IC50 in assay [9] is 10.2 µM.
`O=c1c(O)c(-c2ccc(O)cc2O)oc2cc(O)cc(O)c12` [morin]: the IC50 in assay [9] is 27.2 µM.
As for `O=c1c(O)c(-c2cc(O)c(O)c(O)c2)oc2cc(O)cc(O)c12` [myricetin], the IC50 in assay [10] is 48.7 µM.
(−)-rosmarinic acid: the IC50 in assay [8] is 20.1 µM.
